The source of these data is paper PMC6391970, “Design, Synthesis and Characterization of Covalent KDM5 Inhibitors” (Angewandte Chemie (International Ed. in English), 2018).

One data set concerns the target T1, KDM4A (Homo sapiens, UniProt O75164).
T1 sequence (O75164 1-1064): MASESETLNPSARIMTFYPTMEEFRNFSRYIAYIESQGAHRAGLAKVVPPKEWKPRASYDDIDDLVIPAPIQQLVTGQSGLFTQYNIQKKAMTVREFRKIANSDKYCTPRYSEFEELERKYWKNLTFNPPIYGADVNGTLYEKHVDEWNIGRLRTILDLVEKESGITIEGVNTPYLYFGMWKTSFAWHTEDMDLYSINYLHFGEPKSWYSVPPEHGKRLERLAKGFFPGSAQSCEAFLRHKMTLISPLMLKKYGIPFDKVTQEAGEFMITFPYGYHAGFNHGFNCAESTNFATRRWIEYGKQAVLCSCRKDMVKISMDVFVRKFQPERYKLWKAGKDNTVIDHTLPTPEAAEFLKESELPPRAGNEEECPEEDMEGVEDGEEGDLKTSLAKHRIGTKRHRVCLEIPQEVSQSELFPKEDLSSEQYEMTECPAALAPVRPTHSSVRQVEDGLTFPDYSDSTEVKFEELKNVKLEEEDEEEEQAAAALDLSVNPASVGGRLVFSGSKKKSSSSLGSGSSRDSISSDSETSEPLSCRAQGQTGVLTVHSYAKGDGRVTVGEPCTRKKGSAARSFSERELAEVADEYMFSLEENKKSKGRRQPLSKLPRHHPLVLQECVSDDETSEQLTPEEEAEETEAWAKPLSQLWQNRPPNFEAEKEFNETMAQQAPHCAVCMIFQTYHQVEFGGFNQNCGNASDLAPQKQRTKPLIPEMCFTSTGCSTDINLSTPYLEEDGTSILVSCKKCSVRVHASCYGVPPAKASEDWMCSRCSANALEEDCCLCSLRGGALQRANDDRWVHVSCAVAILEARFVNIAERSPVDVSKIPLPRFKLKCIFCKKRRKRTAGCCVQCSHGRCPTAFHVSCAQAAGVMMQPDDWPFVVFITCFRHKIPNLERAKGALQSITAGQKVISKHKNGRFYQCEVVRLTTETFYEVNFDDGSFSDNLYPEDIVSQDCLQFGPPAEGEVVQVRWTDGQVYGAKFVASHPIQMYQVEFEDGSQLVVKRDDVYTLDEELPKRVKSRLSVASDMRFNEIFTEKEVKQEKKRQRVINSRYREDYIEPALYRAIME
As to the kind of experiment: KDM AlphaScreen selectivity panel, KDM4A. It counts as biochemical. The following applies: for IC50: AlphaScreen after 120 min pre-incubation, read-out: KDM IC50 4A; for SI over KDM5B, 4A: KDM4A IC50/KDM5B IC50. On the procedure:
(§1) A panel of JmjC KDMs was tested by AlphaScreen to determine the selectivity of the compounds (Table S2). […]
(§2) KDM alpha screen selectivity
(§3) Inhibition of histone demethylases was assessed using the histone demethylase AlphaScreen assay (Amplified Luminescence Proximity Homogenous Assay) as previously reported.[4] The basis of this assay for lysine demethylases have been widely described.[5] In brief, the assay was performed in 384-well plate format using white proxiplates (PerkinElmer), and transfer of titrations of compounds (100 nl) was performed using an ECHO 550 acoustic dispenser […]
(§4) Tween- 20) containing the appropriate demethylase enzyme (see Supplementary table 1 for final concentrations) was transferred to each well of a 384-well proxiplate with a Multidrop™ Combi Reagent Dispenser, and the enzymes allowed to pre-incubate for 120 minutes with compound (final concentration of DMSO was 1%). After that time, the enzyme reaction was initiated by addition of 5 µl of a substrate mix consisting of Ketoglutarate (2-OG), Ferrous Ammonium Sulphate (FAS), L-Ascorbic Acid (LAA) and biotinylated peptide substrate (see Supporting table X for final assay concentrations) and the reaction incubated for the indicated time at room temperature. Reaction was stopped by the addition of 5 μl of assay buffer containing EDTA (7.5 mM) and NaCl (400 mM). Streptavidin Donor beads (0.08 mg/ml) and Protein-A conjugated acceptor beads (0.08 mg/ml) (AlphaScreen General IgG detection kit was from Perkin Elmer) were pre-incubated for 1 hour with an antibody to the product methyl mark (Supplementary Table 1) and the presence of biotin-H3-product was detected by addition of 5 µl of the pre-incubated AlphaScreen beads (final concentrations of 0.02 mg/ml with respect to acceptor and donor beads). Detection was allowed to proceed for 2 hour at room temperature and the assay plates read in a BMG Labtech Pherastar FS plate reader (excitation, 680 nm; emission, 570 […]
(§5) IC50(t) = Ki (1 + K ) . ( η . k .t − 1) (1) […]
(§6) Table S4. AlphaScreen assay conditions for the KDM selectivity panel
Background: In Alpha technology, singlet oxygen from a donor bead excites a nearby acceptor bead.

In a further data set the target is T2, KDM4B (Homo sapiens, UniProt O94953).
T2 sequence (O94953 1-1096): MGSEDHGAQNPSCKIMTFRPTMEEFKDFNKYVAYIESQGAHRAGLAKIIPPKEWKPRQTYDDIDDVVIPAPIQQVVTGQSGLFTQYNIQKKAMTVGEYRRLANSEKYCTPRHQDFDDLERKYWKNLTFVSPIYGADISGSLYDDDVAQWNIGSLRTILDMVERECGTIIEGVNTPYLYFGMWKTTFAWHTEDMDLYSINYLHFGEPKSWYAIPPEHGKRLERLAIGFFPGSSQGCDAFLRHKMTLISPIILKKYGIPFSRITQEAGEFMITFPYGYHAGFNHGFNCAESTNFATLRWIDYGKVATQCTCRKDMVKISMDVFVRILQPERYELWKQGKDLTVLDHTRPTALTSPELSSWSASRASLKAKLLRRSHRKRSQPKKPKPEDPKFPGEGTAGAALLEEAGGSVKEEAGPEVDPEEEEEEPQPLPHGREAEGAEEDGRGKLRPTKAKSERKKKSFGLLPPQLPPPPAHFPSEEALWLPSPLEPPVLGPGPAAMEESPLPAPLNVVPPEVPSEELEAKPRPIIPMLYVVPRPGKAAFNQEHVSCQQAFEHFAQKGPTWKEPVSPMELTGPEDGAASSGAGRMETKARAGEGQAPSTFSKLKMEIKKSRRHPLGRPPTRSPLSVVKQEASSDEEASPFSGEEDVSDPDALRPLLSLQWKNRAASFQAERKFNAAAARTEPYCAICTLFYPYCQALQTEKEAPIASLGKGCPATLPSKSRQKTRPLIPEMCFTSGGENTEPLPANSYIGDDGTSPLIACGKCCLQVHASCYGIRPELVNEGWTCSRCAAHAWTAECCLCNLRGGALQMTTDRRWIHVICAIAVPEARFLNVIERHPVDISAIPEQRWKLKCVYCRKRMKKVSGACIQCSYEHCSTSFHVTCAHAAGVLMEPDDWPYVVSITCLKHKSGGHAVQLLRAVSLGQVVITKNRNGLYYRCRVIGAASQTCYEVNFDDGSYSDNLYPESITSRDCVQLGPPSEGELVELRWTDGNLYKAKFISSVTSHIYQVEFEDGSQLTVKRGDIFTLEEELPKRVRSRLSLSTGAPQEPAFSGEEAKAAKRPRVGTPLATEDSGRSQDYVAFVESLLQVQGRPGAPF
The experiment in a line: KDM AlphaScreen selectivity panel, KDM4B. In kind it is biochemical. The following applies: for IC50: AlphaScreen after 120 min pre-incubation, read-out: KDM IC50 4B; for SI over KDM5B, 4B: KDM4B IC50/KDM5B IC50. On the procedure:
as §1, §2, §3, §4, §5, §6

The next data set can be described thus: Caco-2 permeability. It counts as in vitro ADME. The following applies: human, Caco-2, Caco‐2 cells, A to B. (Caco-2 monolayers are a common model of the intestinal barrier.)

What is called IC50 is the point on the concentration scale where inhibition reaches its midpoint. As usually defined, the Papp A→B is how fast a substance crosses the layer from the apical side. Low readings indicate poor permeation, high ones ready permeation. Turning to `C=CC(=O)Nc1cccc(CN(C)CCc2cnn(-c3nccc4c(=O)[nH]cnc34)c2)c1` [Compound 4], the IC50 on KDM4A came out at 1.2 ± 0.1 µM; on KDM4B it was 1.1 ± 0.1 µM. For the same compound, in “Caco-2 permeability”, the Papp A→B was less than 1.5 ×10⁻⁶ cm/s.
As for `CN(CCc1cnn(-c2nccc3c(=O)[nH]cnc23)c1)Cc1cccc(NC(=O)CCl)c1` [Compound 5], at KDM4A, the IC50 amounted to 0.4 ± 0.1 µM and the “SI over KDM5B, 4A” value turned out to be 41. Also, on KDM4B, the “selectivity over KDM4B” value is “more than 60 fold”; the IC50 worked out at 0.7 ± 0.2 µM; the “SI over KDM5B, 4B” value stood at 68. The same compound registered a Papp A→B in the data set “Caco-2 permeability” of less than 1.5 ×10⁻⁶ cm/s.
Regarding `CN(C)C/C=C/C(=O)Nc1cccc(CN(C)CCc2cnn(-c3nccc4c(=O)[nH]cnc34)c2)c1` [Compound 6], the IC50 at KDM4A was found to be 2.4 ± 0.1 µM; on KDM4B it was 1.9 ± 0.1 µM. The Papp A→B in the data set “Caco-2 permeability” is less than 1.5 ×10⁻⁶ cm/s.
Consider `CC(C)c1c(-c2cnn(CCNC(=O)CCl)c2)[nH]c2c(C#N)cnn2c1=O` [Compound 7], for which, at KDM4A, the “selectivity over KDM4A” value is greater than 500 fold; the IC50 came out at 4.6 ± 0.1 µM; the “SI over KDM5B, 4A” value was found to be 653. Further, at KDM4B, the “selectivity over KDM4B” value was greater than 500 fold; the IC50 stood at 4.1 ± 0.2 µM; the “SI over KDM5B, 4B” value amounted to 572. The Papp A→B in “Caco-2 permeability” is less than 0.76 ×10⁻⁶ cm/s.
As for `C=CC(=O)NCCOc1ccc(-c2[nH]c3c(C#N)cnn3c(=O)c2C(C)C)cc1` [Compound 9], on KDM4A, the IC50 amounted to 4.6 ± 0.4 µM and the “SI over KDM5B, 4A” value is reported as 71. On KDM4B, the IC50 is 6.3 ± 0.6 µM and the “SI over KDM5B, 4B” value came to 97. In addition, in the data set “Caco-2 permeability”, the Papp A→B is less than 0.76 ×10⁻⁶ cm/s.
Regarding `C=CC(=O)N1CCC(n2cc(-c3[nH]c4c(C#N)cnn4c(=O)c3C(C)C)cn2)CC1` [Compound 10], at KDM4A, the “selectivity over KDM4A” value is reported as greater than 500 fold; the IC50 stood at 12.7 ± 0.6 µM; the “SI over KDM5B, 4A” value is reported as 742. Besides, at KDM4B, the “selectivity over KDM4B” value is greater than 500 fold; the IC50 came out at 14.2 ± 1.1 µM; the “SI over KDM5B, 4B” value is 831. Also, the Papp A→B in “Caco-2 permeability” was less than 0.76 ×10⁻⁶ cm/s.
As to `CC(C)c1c(-c2cnn(C3CCN(C(=O)CCl)CC3)c2)[nH]c2c(C#N)cnn2c1=O` [Compound 11], on KDM4A, the IC50 was found to be 4.3 ± 0.1 µM and the “SI over KDM5B, 4A” value worked out at 479. On KDM4B, the IC50 was 4.6 ± 0.1 µM and the “SI over KDM5B, 4B” value is reported as 513. Also, in the data set “Caco-2 permeability”, the Papp A→B is less than 1.4 ×10⁻⁶ cm/s.
